Laboratory results reported in ChEMBL document CHEMBL4028883 (J Med Chem, 2017).
≈ marks a conversion by molar mass, not a printed value.

Assays:
[1] = Clearance in rat at 0.5 mg/kg; assay type: ADME, organism-based; conditions: in vivo
[2] = Aqueous solubility of the compound at pH 8.3; assay type: physicochemical; conditions: aqueous medium
[3] = Aqueous solubility of the compound at pH 8.5; assay type: physicochemical; conditions: aqueous medium
[4] = Clearance in rabbit at 0.5 mg/kg; assay type: ADME, organism-based, Oryctolagus cuniculus; conditions: in vivo
[5] = Clearance in cynomolgus monkey at 2.03 mg/kg; assay type: ADME, organism-based, Macaca fascicularis; conditions: in vivo
in vitro [6] = conditions: rat, liver microsomes
[7] = Chemical stability of the compound in Tris buffer at pH 8 at 37 degC after 90 days by HPLC method; assay type: physicochemical; conditions: read-out: Stability
[8] = Lipophilicity, log D of the compound by HPLC method; assay type: physicochemical
[9] = Half life in dog at 4.75 mg/kg; assay type: ADME, organism-based, Canis lupus familiaris; conditions: in vivo
[10] = Total AUC in dog at 4.75 mg/kg; assay type: ADME, organism-based, Canis lupus familiaris; design: dose 4.75 mg/kg, time AUCmax; conditions: in vivo
[11] = Mean residence time in rabbit at 0.5 mg/kg; assay type: ADME, organism-based, Oryctolagus cuniculus; conditions: in vivo
[12] = Half life in dog liver microsomes; assay type: ADME, Canis lupus familiaris, microsome
[13] = Half life in cynomolgus monkey at 2.03 mg/kg; assay type: ADME, organism-based, Macaca fascicularis; conditions: in vivo
[14] = Mean residence time in rat at 0.5 mg/kg; assay type: ADME, organism-based; conditions: in vivo
[15] = Clearance in dog at 4.75 mg/kg; assay type: ADME, organism-based, Canis lupus familiaris; conditions: in vivo
[16] = Acid dissociation constant, pKa of the compound; assay type: physicochemical
[17] = Chemical stability of the compound in phosphate buffer at pH 6.5 at 25 degC after 90 days by HPLC method; assay type: physicochemical; conditions: read-out: Stability
[18] = Volume of distribution at steady state in dog at 4.75 mg/kg; assay type: ADME, organism-based, Canis lupus familiaris; conditions: in vivo, read-out: Vdss
[19] = Total AUC in rat at 0.5 mg/kg; assay type: ADME, organism-based; design: dose 0.5 mg/kg, time AUCmax; conditions: in vivo
[20] = Volume of distribution at steady state in rat at 0.5 mg/kg; assay type: ADME, organism-based; conditions: in vivo, read-out: Vdss
physchem = conditions: phosphate buffer, pH 6.5
[21] = Chemical stability of the compound in phosphate buffer at pH 6.5 at 50 degC after 90 days by HPLC method; assay type: physicochemical; conditions: read-out: Stability
in vivo [22] = conditions: rat, iv
[23] = Volume of distribution at steady state in cynomolgus monkey at 2.03 mg/kg; assay type: ADME, organism-based, Macaca fascicularis; conditions: in vivo, read-out: Vdss
[24] = Aqueous solubility of the compound at pH 6.7; assay type: physicochemical; conditions: aqueous medium
[25] = Volume of distribution at steady state in rabbit at 0.5 mg/kg; assay type: ADME, organism-based, Oryctolagus cuniculus; conditions: in vivo, read-out: Vdss
in vivo [26] = conditions: rat, iv; remark: listed apart in the source
in vitro [27] = conditions: human, liver microsomes
[28] = Chemical stability of the compound in Tris buffer at pH 8 at 50 degC after 90 days by HPLC method; assay type: physicochemical; conditions: read-out: Stability
[29] = Base dissociation constant, pKa of the compound; assay type: physicochemical
in vivo [30] = conditions: rat, iv; remark: listed apart in the source
[31] = Solubility of the compound in Tris buffer at pH 8; assay type: physicochemical
[32] = Chemical stability of the compound in phosphate buffer at pH 7.4 at 37 degC after 90 days by HPLC method; assay type: physicochemical; conditions: read-out: Stability
[33] = Chemical stability of the compound in phosphate buffer at pH 6.5 at 37 degC after 90 days by HPLC method; assay type: physicochemical; conditions: read-out: Stability
[34] = Chemical stability of the compound in phosphate buffer at pH 7.4 at 25 degC after 90 days by HPLC method; assay type: physicochemical; conditions: read-out: Stability
[35] = Total AUC in rabbit at 0.5 mg/kg; assay type: ADME, organism-based, Oryctolagus cuniculus; design: dose 0.5 mg/kg, time AUCmax; conditions: in vivo
[36] = Half life in rat at 0.5 mg/kg; assay type: ADME, organism-based; conditions: in vivo
[37] = Total AUC in cynomolgus monkey at 2.03 mg/kg; assay type: ADME, organism-based, Macaca fascicularis; design: dose 2.03 mg/kg, time AUCmax; conditions: in vivo
[38] = Solubility of the compound in phosphate buffer at pH 7.4; assay type: physicochemical
[39] = Mean residence time in cynomolgus monkey at 2.03 mg/kg; assay type: ADME, organism-based, Macaca fascicularis; conditions: in vivo
in vivo [40] = conditions: rat, iv; remark: listed apart in the source
[41] = Chemical stability of the compound in phosphate buffer at pH 7.4 at 50 degC after 90 days by HPLC method; assay type: physicochemical; conditions: read-out: Stability
[42] = Chemical stability of the compound in Tris buffer at pH 8 at 25 degC after 90 days by HPLC method; assay type: physicochemical; conditions: read-out: Stability
[43] = Half life in rabbit at 0.5 mg/kg; assay type: ADME, organism-based, Oryctolagus cuniculus; conditions: in vivo

CN1CCN(c2cccc3c2CCN(C(=O)/C=C/c2c(-n4cnnn4)ccc(Cl)c2F)[C@@H]3C(=O)Nc2ccc(C(=O)O)cc2)C(=O)C1 [BMS-962212]
clearance [1]: 31 mL/min/kg
solubility [2]: > 25000 µg/mL
solubility [3]: > 100000 µg/mL
clearance [4]: 43 mL/min/kg
clearance [5]: 31 mL/min/kg
half-life (in vitro [6]): 59 min
remaining at […] [7]: 99.7%
logD [8]: 1.4
half-life [9]: 63 min
AUC [10]: 7.76 µM·h
MRT [11]: < 60 min
half-life [12]: 120 min
half-life [13]: 46.8 min
MRT [14]: < 60 min
clearance [15]: 15 mL/min/kg
pKa [16]: 4.1
remaining at […] [17]: 99.9%
Vd [18]: 1.02 L/kg
AUC [19]: 0.441 µM·h
Vd [20]: 0.32 L/kg
solubility at 24 h (physchem): 880 µg/mL (≈ 1340 µM)
remaining at […] [21]: 95.4%
half-life (in vivo [22]): 52.8 min
Vd [23]: 1.16 L/kg
solubility [24]: 260 µg/mL (≈ 394 µM)
Vd [25]: 0.71 L/kg
Vd (in vivo [26]): 0.75 L/kg
half-life (in vitro [27]): 108 to 120 min
remaining at […] [28]: 94%
pKa [29]: 4.7
AUC (in vivo [30]): 0.309 µM·h
solubility [31]: 11000 µg/mL (≈ 16700 µM)
remaining at […] [32]: 99%
remaining at […] [33]: 99.8%
remaining at […] [34]: 100%
AUC [35]: 0.27 µM·h
half-life [36]: 13.2 min
AUC [37]: 1.59 µM·h
solubility [38]: 1500 µg/mL (≈ 2280 µM)
MRT [39]: < 60 min
clearance (in vivo [40]): 16 mL/min/kg
remaining at […] [41]: 94.6%
remaining at […] [42]: 99%
half-life [43]: 36 min
